The record followed here is patent US20260085076A1, “CRYSTAL FORM OF AROMATIC HETEROCYCLIC COMPOUND, COMPOSITION THEREOF, PRODUCTION METHOD THEREOF AND USES THEREOF” (Hangzhou Yuhong Pharmaceutical Technology Co., Ltd., priority 2023, published 2026).

Broadly, the IC50 is the midpoint of a concentration-inhibition curve.

In assay [1] the target is T1, JAK3 kinase (Homo sapiens, UniProt P52333).
T1 sequence (P52333 1-1124): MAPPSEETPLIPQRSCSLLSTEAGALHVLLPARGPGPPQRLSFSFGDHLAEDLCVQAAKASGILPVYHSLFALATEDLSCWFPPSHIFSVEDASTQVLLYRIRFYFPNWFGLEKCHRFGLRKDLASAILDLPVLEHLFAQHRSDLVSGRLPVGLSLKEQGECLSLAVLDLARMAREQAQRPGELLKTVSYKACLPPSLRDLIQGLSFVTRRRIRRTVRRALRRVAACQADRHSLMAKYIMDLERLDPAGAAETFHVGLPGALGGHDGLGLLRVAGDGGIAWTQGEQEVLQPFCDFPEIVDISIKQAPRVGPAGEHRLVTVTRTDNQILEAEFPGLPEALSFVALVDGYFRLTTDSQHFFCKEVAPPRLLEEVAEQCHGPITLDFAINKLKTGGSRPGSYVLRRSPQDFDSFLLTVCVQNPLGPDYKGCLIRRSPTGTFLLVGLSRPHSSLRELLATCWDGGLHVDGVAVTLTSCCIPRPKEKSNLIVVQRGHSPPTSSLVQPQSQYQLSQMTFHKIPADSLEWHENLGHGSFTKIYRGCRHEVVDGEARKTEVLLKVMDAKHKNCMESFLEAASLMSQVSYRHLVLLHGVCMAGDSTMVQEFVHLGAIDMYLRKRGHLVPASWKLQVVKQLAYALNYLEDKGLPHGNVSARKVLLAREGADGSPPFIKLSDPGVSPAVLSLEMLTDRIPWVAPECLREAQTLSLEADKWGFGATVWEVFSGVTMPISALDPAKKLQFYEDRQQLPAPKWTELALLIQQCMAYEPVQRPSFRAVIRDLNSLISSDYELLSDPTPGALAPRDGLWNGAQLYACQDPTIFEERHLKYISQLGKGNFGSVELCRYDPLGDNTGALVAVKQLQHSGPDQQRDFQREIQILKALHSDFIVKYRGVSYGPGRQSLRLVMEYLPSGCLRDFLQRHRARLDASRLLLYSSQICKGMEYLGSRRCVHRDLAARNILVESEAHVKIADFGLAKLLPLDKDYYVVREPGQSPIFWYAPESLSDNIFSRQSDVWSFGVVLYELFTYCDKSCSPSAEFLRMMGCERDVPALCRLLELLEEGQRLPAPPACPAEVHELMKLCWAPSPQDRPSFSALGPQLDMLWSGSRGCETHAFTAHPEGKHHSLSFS
Nature of the assay: Mobility shift assay, JAK3 kinase inhibitory activity. The following applies: Caliper EZ Reader. The format is biochemical.
Procedure: Mobility shift assay was used to detect the in vitro inhibitory activity of the test compounds (listed below) on JAK3 kinase activity. Cerdulatinib (supplier: selleckchem; Article number: S7634) was used as a positive control compound.
Compound was dissolved in 100% DMSO to formulate a 10 mM stock solution and stored in a −20° C. refrigerator away from light.
(1) 1×Kinase buffer was prepared.
After being gradient dilution to a 100-fold final concentration, 250 nL of solutions were transferred to a 384-well plate using Echo550. 250 nL of 100% DMSO were added to each of the negative control wells and the positive control wells, respectively.
(3) 2.5 times a final concentration of kinase solution was prepared with 1×Kinase buffer. […]
(10) The conversion rate was read by Caliper EZ Reader.
Wherein: Conversion %_sample is the conversion rate reading of the sample; Conversion %_min: the mean value of the negative control wells, representing the conversion rate reading of the wells without enzyme activity; Conversion %_max: the mean value of the positive control wells, representing the conversion rate reading of the wells without compound inhibition; % Inhibition represents the percentage inhibition rate. […]

In assay [2] the test system is p-STAT5 under IL-15 stimulation in PBMC (JAK-STAT pathway). The assay is described as follows: p-STAT5 ELISA in IL-15 stimulated hPBMC cells. The format is cell-based, human. The following applies: Homo sapiens, PBMC, 45 min compound, 30 min IL-15, ELISA. The procedure: Based on the mechanism of JAK-STAT pathway, the effect of the compounds on the JAK-STAT pathway were evaluated by using cytokine IL-15 to stimulate hPBMC cells, and using the downstream STAT5 phosphorylation level as the detection index.
1. PBMC cell counting plate: 90 μL PBMC was seeded in a 96-well plate (PBMC cell density 80,000/well).
2. Treatment with test compounds: After cells being seeded, drug treatment was carried out immediately. The drugs to be tested at 5 μL/well (final concentrations 1, 0.5, 0.1, 0.05, 0.01, and 0.005 μM) were incubated at 37° C. for 45 min.
3. Cytokine IL-15 stimulation: The cells were stimulated by 5 μL IL-15, and incubated at 37° C. for 30 min.
4. Protein sample collection: The cells were collected in a centrifuge tube and centrifuged for 5 minutes. The supernatant was discarded and cells were lysed with 1× Cell Extraction Buffer PTR.
5. p-STAT5 detection: Perform detection according to the requirements of the ELISA kit.
Experimental results: IC50 values of compounds on p-STAT5 under IL-15 stimulation in PBMC

For assay [3], the system named is SRBC mouse model. Nature of the assay: SRBC-induced delayed-type hypersensitivity (DTH) in mice. The following applies: 100 mg/kg gavage once a day, day 0 to day 6, FIG. 76. The format is in vivo, Balb/c mice. Here is the method:
Drug formulation: The compound was added to 0.5% CMC-Na solution to formulate a drug suspension (dosage is 10 mg/mL).
Induction and administration of delayed-type hypersensitivity (DTH): 30 male Balb/c mice were weighed and randomly divided into 6 groups according to body weight, with 5 mice in each group. The experimental period lasted for 7 days. On day 0, mice were sensitized by subcutaneous injection of sheep red blood cells (SRBC). The mice were performed gavage administration at 100 mg/kg (once a day) from day 0 to day 6. On day 6, the mice were injected SRBC into the right hind foot pad for challenge. Measurements were taken on the 7th day of the experiment, and the experiment was concluded.
Pharmacodynamic detection indicators of disease models: the detection and observation indicators are the redness and swelling degree and thickness of the paw pads of SRBC-induced mice. The thickness of the right paw was measured on day 6 before the SRBC injection challenge as the baseline. The thickness of the right paw was measured again at the end of the experiment, the difference in paw thickness before and after the second injection was calculated.
Statistical analysis: The experimental data were expressed as mean±standard deviation (Mean±SD). All data were statistically analyzed using T-test, with P<0.05 considered statistically significant.

The subject of assay [4] is collagen-induced arthritis model in mice. The assay is described as follows: Collagen-induced arthritis model in mice (mCIA). The format is in vivo, DBA/1J mice. The following applies: 50 mg/kg once a day, FIG. 77. The procedure:
1. Construction of collagen-induced arthritis model in mice (mCIA) Experimental purpose: To test the immunosuppressive activity of YZ001052 in the mCIA model. PF-06651600 was used as a positive control compound.
Complete and incomplete Freund's adjuvants with chicken type II collagen solution were mixed in equal proportions to form emulsions. Except for the blank control group, a mixture of complete Freund's adjuvant and chicken type II collagen solution was injected subcutaneously into the base of the tail and thigh of mice on Day 0. Each mouse was injected subcutaneously with 100 μL at the base of the tail, and injected 50 μL subcutaneously at the base of both thighs (primary immunization). On day 21, mice were injected subcutaneously with 200 μL of a mixture of incomplete Freund's adjuvant and chicken type II collagen as a booster injection (second immunization). Arthritis was considered to occur if the clinical score of at least one limb was >2 points. Paw thickness measurement: Using a vernier caliper to measure the thickness of the left and right hind feet of the mouse and record it, which is the degree of paw swelling. The detection frequency was once every 3 days.

Assay [5] has as its system DSS-induced inflammatory bowel disease model in mice. Nature of the assay: DSS-induced mouse inflammatory bowel disease model. The following applies: 50 mg/kg once a day, 5% DSS, day 8, compared with model group, FIG. 78. The format is in vivo, C57BL/6 mice. Here is the method:
Experimental purpose: To test the immunosuppressive activity of YZ001052 in DSS-induced inflammatory bowel disease model in mice. PF-06651600 was used as a positive control compound.
50 g of DSS was added 1000 mL of sterile water to formulate a 5% DSS solution, and the solution was filtered with a 0.22 μm filter membrane. Starting from day 0, the blank group was gave drinking water without DSS, and the other experimental groups were gave drinking water containing 5% DSS. All mice were sacrificed on day 8. After the experiment, the colon was collected, photographed and measured for length. The data were analyzed according to Statistics.

Assay [6] deals with mouse model of acute radiation-induced lung injury. The assay is described as follows: Acute radiation-induced lung injury in mice. The format is in vivo, C57BL/6 mice. The following applies: 30 mg/kg q.d., 22.5 Gy whole lung, three weeks after modeling. Here is the method: Eighteen female C57BL/6 mice were divided randomly into three groups: blank control group, simple irradiation group, and irradiation+ drug YZ001052 (30 mg/kg q. d) intervention group, with 6 mice in each group.
The mice were anesthetized with 1% sodium pentobarbital by intraperitoneal injection, and irradiated the whole lung with 22.5 Gy in a single shot using 220 KV X-rays through the Small Animal Precision Radiotherapy Research Platform (SARRP). After irradiation, the mice were housed in a normal manner.
Three weeks after modeling, the mice were anesthetized and dissected. The lung tissues were exposed and the left lung was ligated, an open tracheotomy was performed, the lung was lavaged with cold PBS, and the alveolar lavage fluid (BALF) was collected and centrifuged at 4° C.
The supernatant was collected to detect the content of inflammatory factor TNF-α by ELISA.
Resuspend the bronchoalveolar lavage fluid cell pellet in 200 μL PBS for white blood cell (WBC) counting.

Each structure is given as a SMILES string.

For `C=CC(=O)N1CCc2c(c(-c3ccnc4[nH]ccc34)nn2C)C1` [YZ001052, 1-(1-methyl-3-(1H-pyrrolo[2,3-b]pyridin-4-yl)-1,4,6,7-tetrahydro-5H-pyrazolo[4,3-c]pyridin-5-yl)prop-2-en-1-one], the IC50 in assay [1] was 0.25 nM; in assay [2], 10.7 nM. The “immunosuppressive effect on SRBC-induced delayed-type hypersensitivity (right paw thickness)” value in assay [3] is “significant immunosuppressive effects”. In addition, the paw swelling entry in assay [4] (CIA mice) is given as “improved to varying degrees”. In addition, the arthritis score result in assay [4] (compared with the model group) is “significantly decreased”. Further, the colorectal length result in assay [5] is on record as “significantly increased”. Moreover, the “TNF-α level in bronchoalveolar lavage fluid” value in assay [6] (FIG. 79) is “good inhibitory effect”. For the same compound, in assay [6] (FIG. 80), the “number of inflammatory cell infiltration in the lungs (white blood cells in BALF)” value is reported as “significantly reduce”.
